Results reported in US20260284069A1, “PARG INHIBITORY COMPOUNDS” (FoRx Therapeutics AG, priority 2023, published 2026).
Structures can show the parent of a compound that is named as a salt. Where two headings read alike, the source gives them in different places.

Experiments:
human PARG = target: T1, human PARG (Homo sapiens, UniProt Q86W56, A967T/C963S/D927K/H446G/I916T/L447S/L473S/M841I/N479S/R811K/S802A/S858P/T924D); assay: PARG enzymatic IC50 assay; assay type: biochemical; conditions: PARG protein, 2 hours incubation; substrate ADP-ribose-pNP, absorbance 405 nm; read-out: IC50 determined in PARG enzymatic assay
T1 construct: human PARG (448-976 [H446G, L447S, L473S); 6His-TwinStrep (protease-cleavable) (N, cleaved yes); Gly-Ser at positions 446-447, given as H446G, L447S; host or cells: E. coli BL21 (DE3)
T1 sequence (Q86W56 446-976 H446G/L447S/L473S/N479S/S802A/R811K/M841I/S858P/I916T/T924D/D927K/C963S/A967T): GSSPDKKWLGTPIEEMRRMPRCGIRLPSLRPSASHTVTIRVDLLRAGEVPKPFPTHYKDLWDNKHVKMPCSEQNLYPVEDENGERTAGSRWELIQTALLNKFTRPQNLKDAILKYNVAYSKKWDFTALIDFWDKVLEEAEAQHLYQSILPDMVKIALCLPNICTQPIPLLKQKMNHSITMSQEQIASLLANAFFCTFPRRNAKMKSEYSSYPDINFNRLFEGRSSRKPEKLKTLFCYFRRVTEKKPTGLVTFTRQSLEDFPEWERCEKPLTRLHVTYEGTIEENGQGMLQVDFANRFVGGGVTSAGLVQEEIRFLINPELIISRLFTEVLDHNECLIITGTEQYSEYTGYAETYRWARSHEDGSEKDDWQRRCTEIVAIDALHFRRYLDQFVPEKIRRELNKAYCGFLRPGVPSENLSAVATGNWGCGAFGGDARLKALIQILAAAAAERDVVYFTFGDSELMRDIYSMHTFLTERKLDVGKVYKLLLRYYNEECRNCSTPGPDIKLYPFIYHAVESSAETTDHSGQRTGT
Procedure: A codon optimized gene encoding human PARG (448-976 [H446G, L447S, L473S, N479S, S802A, R811K, M841I, S858P, I916T, T924D, D927K, C963S, A967T]) was synthesized by Genscript, and cloned into pET15b (NcoI/BamHI) with an N-terminal, […] protease cleavable 6His-TwinStrep tag. Expression of the protein in E. coli BL21 (DE3) was induced by addition of 0.2 mM IPTG to a shake flask culture grown to OD600=0.8 at 37° C. Growth was allowed to continue at 30° C. for a further 20 hours before harvesting by centrifugation and storage of the cell pellet at −80° C.
Protein was purified by IMAC and SEC: frozen cell pellets (typically 40 g wet weight) were resuspended by homogenization in 5 volumes buffer A (25 mM Tris/HCl pH 8.0, 200 mM NaCl, 2 mM DTT), supplemented with 1 mg of DNase I from bovine pancreas (Sigma-Aldrich) and protease inhibitors (Roche Complete™ EDTA-free protease inhibitor tablet), and lysed by passage through a Constant Systems BasicZ homogenizer. The lysate was clarified by centrifugation for 60 minutes at 25,000 g, 4° C., and the lysate supernatant was loaded onto 5 ml StrepTrap HP (Cytiva) pre-equilibrated with buffer A. The column was washed with buffer A (~10 CV), then buffer B containing 1M KCl (~5 CV), and then the protein was eluted with buffer A containing 2.5 mM d-Desthiobiotin. Pooled fractions containing 6HisTwinStrep-TEV-hPARG were incubated with TEV protease overnight at 4° C. hPARG was separated from uncleaved material and […] protease through gel filtration with Superdex75 sizing column (GE Healthcare) pre-equilibrated with SEC buffer (15 mM Tris/HCl pH 8.5, 100 mM NaCl, 2 mM DTT). Pooled fractions containing pure hPARG were concentrated using a 10 k MWCO spin concentrator (VivaSpin) to 10 mg/mL, and then either used immediately for crystallisation or snap-frozen in liquid nitrogen for storage at −80° C.
PARG enzyme as incubated with compound or vehicle (DMSO) for 2 hours in a 384 well plate. After adding the PARG substrate ADP-ribose-pNP, the plate was read for absorbance intensity at 405 nm. The vehicle (DMSO) with high absorbance intensity represents no inhibition of enzymatic reaction while the low control (no enzyme) with low absorbance intensity represents full inhibition of enzymatic reaction.
• hPARG: Peak Protein, 30 nM • Substrate: ADP-pNP, 800 μM, Jena Bioscience catalog #NU-955 • Reaction time: 60 minutes • Assay buffer: 50 mM Tris-HCl pH 8.0, 100 mM NaCl, 2 mM DTT • Temperature: 30° C. • Total volume: 30 μL
• 0% inhibition control: DMSO • 100% inhibition control: No enzyme
The protocol that was used for enzyme reaction and detection is as follows: • 1. Transfer 100 nL of the final concentration of test compounds or vehicle (DMSO) to the appropriate wells of a microtiter plate. • 2. Centrifuge the plate at 1000 rpm for 1 minute. • 3. Transfer 14.6 μL of 2× final concentration of enzyme in assay buffer or assay buffer alone to the appropriate wells. • 4. Centrifuge the plate at 1000 rpm for 1 minute. • 5. Incubate the plate at room temperature for 15 minutes or 2 hours. • 6. Transfer 15.4 μL of 2× substrate in assay buffer to all the test wells. • 7. Centrifuge the plate at 1000 rpm for 1 minute. • 8. Read the plate on a plate reader (e.g., Spark Tecan).

U2OS cells = assay: Cellular viability assay (U2OS, PARG-inhibition insensitive cell line); assay type: cell-based; conditions: 96 hours incubation, Cell Titer-Glo, read-out: EC50 determined in U2OS cells, cellular viability assay
Procedure: (§1) NCIH-460 as a PARG-inhibition sensitive cell line and U2OS as PARG-inhibition insensitive cell line were plated at 1000 cells/well and 2000 cells/well, respectively, in 96-well white plates with clear flat bottom. After 24 hours, the compounds were added with the Tecan digital dispenser (D300e), in duplicates. The outer wells of the plate were excluded. After 96 hours of incubation, 150 μl of the growth medium were removed and 50 μl of Cell Titer-Glo (Promega) were added per well. Following an incubation of 10 minutes, luminescence was read using a plate reader (Tecan). Averaged values of the samples were normalized to DMSO treated control samples. Curves were fit as % of the control vs. log of the compound concentration using a 4 parameter log-logistic function: […]

NCIH-460 cells = assay: Cellular viability assay (NCIH-460, PARG-inhibition sensitive cell line); assay type: cell-based; conditions: Cell Titer-Glo, read-out: EC50 determined in NCIH-460 cells, cellular viability assay
Procedure: as §1

PARG = target: T2, PARG (Homo sapiens, UniProt Q86W56); assay: Cellular PAR chain assay; assay type: cell-based; conditions: U2OS cells, 1 hour compound pretreatment then 1-hour TMZ treatment; % PAR chain positive cells by flow cytometry; read-out: EC50 determined in cellular PAR chain assay
T2 construct: endogenous in cells; host or cells: U2OS
T2 sequence (Q86W56 whole entry): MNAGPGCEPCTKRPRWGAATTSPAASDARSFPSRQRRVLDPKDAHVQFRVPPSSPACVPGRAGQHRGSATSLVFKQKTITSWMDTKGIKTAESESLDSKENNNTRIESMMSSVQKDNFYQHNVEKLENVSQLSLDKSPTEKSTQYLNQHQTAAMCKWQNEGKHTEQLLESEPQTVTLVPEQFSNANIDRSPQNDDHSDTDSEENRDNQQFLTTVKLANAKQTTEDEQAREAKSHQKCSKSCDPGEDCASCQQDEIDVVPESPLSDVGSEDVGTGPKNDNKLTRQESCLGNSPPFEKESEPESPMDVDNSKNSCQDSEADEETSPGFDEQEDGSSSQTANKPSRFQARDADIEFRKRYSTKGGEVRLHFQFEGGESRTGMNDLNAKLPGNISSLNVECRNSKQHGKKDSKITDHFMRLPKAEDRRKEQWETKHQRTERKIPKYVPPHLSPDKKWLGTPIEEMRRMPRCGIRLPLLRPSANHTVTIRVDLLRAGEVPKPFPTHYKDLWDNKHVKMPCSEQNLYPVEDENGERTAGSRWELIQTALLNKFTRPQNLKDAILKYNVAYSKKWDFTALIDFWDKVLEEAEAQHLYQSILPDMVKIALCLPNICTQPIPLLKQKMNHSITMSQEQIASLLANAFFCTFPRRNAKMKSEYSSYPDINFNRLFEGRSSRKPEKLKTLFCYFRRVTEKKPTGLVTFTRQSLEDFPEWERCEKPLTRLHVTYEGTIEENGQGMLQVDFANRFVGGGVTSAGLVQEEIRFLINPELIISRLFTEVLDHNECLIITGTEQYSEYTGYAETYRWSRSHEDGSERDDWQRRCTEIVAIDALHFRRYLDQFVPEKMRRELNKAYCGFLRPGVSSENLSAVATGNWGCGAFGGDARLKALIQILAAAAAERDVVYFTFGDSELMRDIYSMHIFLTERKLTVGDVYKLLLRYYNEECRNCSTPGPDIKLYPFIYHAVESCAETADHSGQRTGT
Procedure: The ability of compounds to inhibit PARG in response to DNA damage, was assessed with U2OS cells pretreated with the compounds for 1 hour, following a 1-hour treatment with the DNA alkylating agent temozolomide (TMZ). […] The cells were incubated for 2 hours at room temperature with a mouse monoclonal antibody against poly (ADP) ribose (PAR) polymer. The cells were washed and incubated with an anti-mouse Alexa-488 conjugated secondary antibody for 1 hour at room temperature. Propidium iodide staining was used to determine DNA content in the cells (staining at 4° C. overnight). The fluorescence intensity of the cells was assessed by flow cytometry (Cytoflex from Beckmann) and the percentage of PAR chain positive cells (gated in relation to TMZ+DMSO treated control) was determined. PAR chain positive cells % were fit against the concentration of the compound using a 4 parameter log-logistic function, generating PAR chain EC50 values: […]

[1] = Homo sapiens, NCI-H460, 96 h, 96 hours incubation

| SMILES | IC50 (human PARG) [µM] | EC50 (U2OS cells; Homo sapiens, U2OS, 96 h) [µM] | EC50 (NCIH-460 cells; 96 hours incubation) [µM] | EC50 (U2OS cells) [µM] | EC50 (NCIH-460 cells; [1]) [µM] | EC50 (PARG) [µM] | EC50 (U2OS cells; Homo sapiens) [µM] | EC50 (NCIH-460 cells; Homo sapiens, NCI-H460, 96 hours incubation) [µM] |
| --- | --- | --- | --- | --- | --- | --- | --- | --- |
| CC1(C)CN(c2cc(S(=O)(=O)NC3(C)CC3)cn3c(-c4nnc(C(F)F)s4)ncc23)CC(CO)N1 (single isomer, unassigned) [Example 14a, (R or S)-3-(5-(difluoromethyl)-1,3,4-thiadiazol-2-yl)-8-(5-(hydroxymethyl)-3,3-dimethylpiperazin-1-yl)-N-(1-methylcyclopropyl)imidazo[1,5-a]pyridine-6-sulfonamide] | 0.015 | > 11.9 | 1.79 | – | – | – | – | – |
| CC1(C)CN(c2cc(S(=O)(=O)NC3(C)CC3)cn3c(-c4nnc(C(F)F)s4)ncc23)CC(CO)N1 (single isomer, unassigned) [Example 14b, (S or R)-3-(5-(difluoromethyl)-1,3,4-thiadiazol-2-yl)-8-(5-(hydroxymethyl)-3,3-dimethylpiperazin-1-yl)-N-(1-methylcyclopropyl)imidazo[1,5-a]pyridine-6-sulfonamide] | 0.012 | – | 0.0774 | > 11.4 | – | – | – | – |
| C[C@H]1CN(c2cc(S(=O)(=O)NC3(C)CC3)cn3c(-c4nnc(C(F)F)s4)cnc23)C[C@H](C)N1 [Example 1, 3-(5-(difluoromethyl)-1,3,4-thiadiazol-2-yl)-8-((3S,5S)-3,5-dimethylpiperazin-1-yl)-N-(1-methylcyclopropyl)imidazo[1,2-a]pyridine-6-sulfonamide formate] | 0.011 | 12.6 | – | – | 0.07 | – | – | – |
| CC1(NS(=O)(=O)c2cc(C3=CCNCC3(F)F)c3c(Cl)nc(-c4nnc(C(F)F)s4)n3c2)CC1 [Example 2, 1-chloro-8-(3,3-difluoro-1,2,3,6-tetrahydropyridin-4-yl)-3-(5-(difluoromethyl)-1,3,4-thiadiazol-2-yl)-N-(1-methylcyclopropyl)imidazo[1,5-a]pyridine-6-sulfonamide] | 0.011 | 13.3 | – | – | 0.199 | – | – | – |
| COC[C@H]1CN(c2cc(S(=O)(=O)NC3(C)CC3)cn3c(-c4nnc(C(F)F)s4)ncc23)C[C@H](COC)N1 [Example 3, 8-((3R,5R)-3,5-bis(methoxymethyl)piperazin-1-yl)-3-(5-(difluoromethyl)-1,3,4-thiadiazol-2-yl)-N-(1-methylcyclopropyl)imidazo[1,5-a]pyridine-6-sulfonamide formate] | 0.012 | > 11 | – | – | 0.019 | – | – | – |
| CN=S1(=O)CCN(c2cc(S(=O)(=O)NC3(C)CC3)cn3c(-c4nnc(C(F)F)s4)ncc23)CC1C (stereo not drawn) [Example 4, (Cis or Trans)-3-(5-(difluoromethyl)-1,3,4-thiadiazol-2-yl)-8-(2-methyl-1-(methylimino)-1-oxido-116-thiomorpholino)-N-(1-methylcyclopropyl)imidazo[1,5-a]pyridine-6-sulfonamide] | 0.011 | > 20 | – | – | 0.111 | – | – | – |
| CN=S1(=O)CCN(c2cc(S(=O)(=O)NC3(C)CC3)cn3c(-c4nnc(C(F)F)s4)ncc23)CC1C (stereo not drawn) [Example 5, (Trans or Cis)-3-(5-(difluoromethyl)-1,3,4-thiadiazol-2-yl)-8-(2-methyl-1-(methylimino)-1-oxido-116-thiomorpholino)-N-(1-methylcyclopropyl)imidazo[1,5-a]pyridine-6-sulfonamide] | – | – | 0.208 | > 20 | – | – | – | – |
| CC1CN(c2cc(S(=O)(=O)NC3(C)CC3)cn3c(-c4nnc(C(F)F)s4)ncc23)CC2(CC2)N1 (centres unmarked) [Example 10, 3-(5-(difluoromethyl)-1,3,4-thiadiazol-2-yl)-8-(5-methyl-4,7-diazaspiro[2.5]octan-7-yl)-N-(1-methylcyclopropyl)imidazo[1,5-a]pyridine-6-sulfonamide formate] | 0.011 | > 20 | – | – | 0.418 | – | – | – |
| CC1(NS(=O)(=O)c2cc(C3=CCNCC3)c3c(C4CC4)nc(-c4nnc(C(F)F)s4)n3c2)CC1 [Example 11, 1-cyclopropyl-3-(5-(difluoromethyl)-1,3,4-thiadiazol-2-yl)-N-(1-methylcyclopropyl)-8-(1,2,3,6-tetrahydropyridin-4-yl)imidazo[1,5-alpyridine-6-sulfonamide formate] | 0.016 | – | – | – | – | 0.009 | 1720 | 0.074 |
| CC1(NS(=O)(=O)c2cc(C3=CCNCC3)c3c(C(F)(F)F)nc(-c4nnc(C(F)F)s4)n3c2)CC1 [Example 12, 3-(5-(difluoromethyl)-1,3,4-thiadiazol-2-yl)-N-(1-methylcyclopropyl)-8-(1,2,3,6-tetrahydropyridin-4-yl)-1-(trifluoromethyl)imidazo[1,5-a]pyridine-6-sulfonamide formate] | 0.011 | 3.87 | – | – | 0.094 | 0.006 | – | – |
| C[C@H]1CN(c2cc(S(=O)(=O)NC3(C)CC3)cn3c(-c4nnc(C(F)F)s4)nc(F)c23)C[C@H](C)N1 [Example 13, 3-(5-(difluoromethyl)-1,3,4-thiadiazol-2-yl)-8-((3S,5S)-3,5-dimethylpiperazin-1-yl)-1-fluoro-N-(1-methylcyclopropyl)imidazo[1,5-a]pyridine-6-sulfonamide] | 0.016 | 3.59 | – | – | 0.035 | 0.005 | – | – |
| CC1(C)CN(c2cc(S(=O)(=O)NC3(C)CC3)cn3c(-c4nnc(C(F)F)s4)ncc23)CC(CO)N1 (centres unmarked) [Example 14, 3-(5-(difluoromethyl)-1,3,4-thiadiazol-2-yl)-8-(5-(hydroxymethyl)-3,3-dimethylpiperazin-1-yl)-N-(1-methylcyclopropyl)imidazo[1,5-a]pyridine-6-sulfonamide] | 0.011 | 9.52 | – | – | 0.094 | – | – | – |
